Entries after “also recorded” stand apart in the source; their conditions may differ.

This experiment concerns tick midgut. Kind of experiment: Tick midgut contraction assay with EthoVision video analysis. Details: species or system Rhipicephalus sanguineus. The source says: Individual female ticks were immobilized on a Petri dish filled with wax by submerging their legs in melted wax heated with a soldering pencil (Electronic Control Soldering Station EC 1000, Weller, Apex, North Carolina, USA). Females were dissected under physiological saline following the protocol described by Tidwell et al.[51]. The tick was cut along the edge of the scutum/alloscutum using a stainless steel #12 scalpel blade (Integra Miltex, York, PA, USA), after which the scutum was removed with a pair of fine forceps. To expose the midgut for removal, the tracheae, Malpighian tubules, ovaries, rectal sac, and synganglion were removed with fine forceps in that order. The midgut was then carefully removed and placed into 200 µL of fresh tick saline (See Reagents and Peptides) on a single gasketed incubation chamber (500 µL, Size 22 × 40 mm, Electron Microscopy Sciences, Hatfield, PA). The midguts were then rinsed three times with the physiological tick saline for subsequent fluorescent labeling or activity experiments.
Midguts were dissected from immobilized female ticks under tick saline, as described under the Midgut Dissection. Ten different midguts were used for each of the two treatments, and ticks were of the same age and batch and had been maintained under the same conditions. Dissected midguts were placed individually into 200 µL of tick saline for 10 min at 28 °C on a gasketed glass coverslip (500 µL, Size 22 × 40 mm) serving as incubation chamber. […] After the final wash and removal of saline, 200 µL of saline were added, and a microscopy coverslip (24 × 60 mm, VWR, Radnor, PA) was placed over the gasketed portion of the incubation chamber, which height (0.5 mm) fits to prevent the midgut from floating, but still allows midgut peristalsis. The midguts were observed and filmed under a dissecting microscope (Olympus SZ61, Japan) equipped with an Infinity 5 camera (Teledyne Lumenera, Ottawa, ON, Canada). All videos were recorded for 1 min with the INFINITY ANALYZE 7 software (Teledyne Lumenera) at 30 frames/second with a 2464 × 2056 resolution. The field of view in all videos recorded represents 4 × 3.5 mm to capture the entire tick midguts under saline. All video files in Windows Media Video (.wmv) format obtained from the Infinity Analyze 7 software were converted to the MP4 format using CloudConvert (cloudconvert.com, Lunaweb, Munich, Germany) for analyses with the EthoVision XT 17 software (Noldus Information Technology, Wageningen, The Netherlands).
We used the EthoVision 17 XT software to quantify the “activity” (pixel change) of the midguts from the videos recorded. This software defines activity as the percentage of pixels that have changed in the entire defined arena between the current image and previous image. The videos are recorded in 2464 × 2056 resolution and the arena is set to be the entire video screen. Video files were uploaded into the program and analyzed starting from time zero to the end of the 60 s video. Detection settings for activity included the activity threshold which was set to 5 to achieve zero detection when the midgut was immobile. Although the video captured 30 frames (images) per s, for the video analysis we chose a “sample rate” of 7 samples /s, with sample rate being the number of images from the video the EthoVision program analyzes per second. To calculate activity, each pixel of the video image was compared from one image to the next, and the proportion of pixel changes was calculated by dividing the number of pixels changed from one image to the next by the total number of pixels in the image. Care was given for the midgut to occupy most of the arena, as the activity analyses will reflect the midgut movement as a proportion of the total arena. Midgut activity is observed as pixel changes, which are represented by the red-colored pixels in the S4 video. The mean pixel change per midgut was then determined by averaging the pixel changes from all samples within the recording period. […]

Turning to TMR-C-GTGEDQAFSPWGamide [TMR-RK8], where the note is “1 µM TMR-RK8, after 1 min of exposure, 4X speed”, the “midgut contractions, S4 Video (in words)” value was “Rapid contractions were observed shortly after treatment”. In addition, for the setting “10 µM, 1 min, 28 °C, midguts of unfed females ex vivo, video recorded 1 min”, the “midgut peristalsis/contractions (in words)” value is on record as “inducing significant midgut peristalsis; also recorded: induced peristalsis”. Besides, the “mean activity (mean pixel change, percentage of pixels changed in arena)” value (10 µM, 1 min, rinsed twice, 28 °C, tick saline, 60 s video, 7 samples/s, EthoVision XT 17, activity threshold 5, N = 10 midguts) was determined as 1%. Moreover, the “mean activity of midguts compared to TMR-Scrambled (in words)” value (10 µM, N = 10 vs N = 10, for the duration of the videos) is recorded as “higher mean activity”. For the same substance, the “pixels changing from each sample to the next” value (of 5,065,984 pixels per sample, 10 µM, 1 min, 28 °C, N = 10) is “about 50,660 pixels”. For the setting “ratio of mean activity, 10 µM, N = 10 per treatment”, the “movement of midguts relative to TMR-Scrambled treated midguts” value is recorded as 10 factor.

These data come from publication PMC11091117, “A fluorescently-tagged tick kinin neuropeptide triggers peristalsis and labels tick midgut muscles” (Scientific Reports, 2024).
